Measured values taken from PMC9321043, “Synthesis, Structure–Activity Relationships, and Parasitological Profiling of Brussonol Derivatives as New Plasmodium falciparum Inhibitors” (Pharmaceuticals, 2022).
Values joined by “and” are separate entries in the source; they are usually repeats but may differ in a detail not shown here. Equal entries are not always repeated. Where two headings read alike, the source gives them in different places.

Experiments:
[1] = system: P. falciparum (3D7 strain); assay: In vitro antiplasmodial activity, P. falciparum blood-stage parasites, SYBR Green I; format: cell-based, Plasmodium falciparum
Description: The P. falciparum strains were cultivated in human blood cells (hRBC) O^+, while P. knowlesi was cultivated in rhesus red blood cells (rRBC) as described. P. falciparum complete RPMI (consisting of RPMI-1640, supplemented with 0.2% NaHCO3, 25 mM HEPES (pH 7.4), 11 mM D-glucose, 10 mg/L hypoxanthine, 25 mg/L gentamicin, and 0.5% (m/v) AlbuMAX II). The parasitemias of these cultures were maintained below 10% with 2.5% hematocrit. P. knowlesi complete RPMI (consisting of RPMI-1640 supplemented with 25 mM HEPES, […] hypoxanthine, 0.26% NaHCO3, 10 mg/L gentamicin, and 1% Albumax II). This culture was maintained with RBCs up to 5% hematocrit. The culture medium was changed daily, and all cultures were maintained under a 90% N2/5% CO2/5% O2 gas mixture at 37 °C. All compounds were purchased from Sigma-Aldrich (Cotia, Brazil).
The antiplasmodial activity of brussonol and derivatives was evaluated against P. falciparum blood parasites 3D7(chloroquine-sensitive). The parasites were synchronized through sterile 5% (m/v) D-sorbitol treatment over 10 min at 37 °C for the enrichment of ring stages. Centrifugation 600× g over 5 min was used to pellet the cultures. The parasitemia was determined by microscope analysis of thin blood smears stained with Giemsa 10% (v/v) after fixation with methanol. The initial parasitemia was calculated for 1000 red blood cells (RBCs), and cultures were diluted to 0.5% parasitemia and 2% hematocrit by the addition of the appropriate volumes of blood and medium. A total of 180 µL aliquots of parasites were distributed into 96-well plates followed by the addition of 20 µL of previously prepared aliquots of ten-fold concentrated compounds, the range of concentrations tested was 10–1.53 µM. Negative and positive control wells, which correspond to non-parasitized erythrocytes and parasite cultures in the absence of compounds, were set in parallel. The DMSO concentration was maintained below 0.05% (v/v) for all compounds except for brussonol, which was 0.5%. The plates were incubated for 72 h at 37 °C in a humidified incubator with a gas mixture of 90% N2, 5% O2, and 5% CO2. Each test was performed in duplicates, and the results were compared with the control cultures. Once completed incubation, the culture medium was removed, and the cells were resuspended in 100 µL PBS (116 mM NaCl, 10 mM NaH2PO4, 3 mM KH2PO4) and lysed with 100 µL lysis buffer (20 mM Tris base, 5 mM EDTA, 0.0008% (v/v) Triton X-100, 0.008% (m/v) saponin, pH 8.0) containing 0.002% (v/v) SYBR Green I. Plates were incubated for 30 min at room temperature, and a SpectraMAX Gemini EM plate reader (Molecular Devices Corp., Sunnyvale, CA) was used to determine the fluorescence corresponding to parasitic density (excitation at 485 nm, emission at 535 nm). The half-maximal inhibitory concentration (IC50^Pf) was determined by non-linear regression analysis of the resulting concentration–response curve using the software GraphPad Prism version 8.0.1 for Windows, GraphPad Software, San Diego, California USA, www.graphpad.com, accessed on 3 March 2022”.

[2] = system: P. falciparum; assay: In vitro combination with artesunate, fixed-ratio isobologram; format: cell-based, Plasmodium falciparum
Description: A drug combination investigation is important to assess whether the combination of the tested compound with a known antimalarial drug is advantageous or not. In this assay, a fixed molar ratio was used to assess the combination profile of brussonol and artesunate. The range of concentrations tested was based on the assessed IC50 values of both the compounds previously determined. In this method, we first determined the additive isobole, which defined the range of IC50 values pairs to be attributed to an additive (neutral) character of combination. Next, the combination pairs were plotted. Data points distributed below or above the additive isobole indicate a synergic or antagonistic profile, respectively.
This assay was adapted from the work done by Fivelman and collaborators (2004). Consideration of additivity ranges was included in the analysis, as described by Grabovsky and Tallarida (2004). Brussonol and artesunate were diluted and combined in a 96-well plate in […] fixed-ratio combinations (1:0, 6:1, 5:2, 4:3, 3:4, 2:5, 1:6, 0:1). Starting concentrations were 6× IC50 for both compounds. […] The absolute IC50s of brussonol and artesunate (proportions 1:0 and 0:1), the partial IC50s (IC50^brussonol and IC50^artesunate) for each combination (6:1, 5:2, 4:3, 3:4, 2:5, 1:6), and the fractional inhibitory concentrations for each combination were determined.

[3] = system: hemozoin formation; assay: Hemozoin formation inhibition assay; format: biochemical; details: hemin 25 µM, pH 4.8, 4 h, one experiment in triplicate
Description: 2. Hemozoin Formation Inhibition Assay
The hemozoin formation inhibition assay was performed as described previously.12 Briefly, serial 1:3 dilutions, in a 96‐well plate, wit h brussonol were made in a final volume of 20 μL in a concentration 10 times higher than the final concentration of the assay. Secondly, 90 μ L of freshly prepared hemin (at a final concentration of 25 μM) solution in 1M NaOAc/HOAc buffer pH 4.8 were added followed by addition of 90 μ L of 5.4 mg/L Tween 20 solution freshly prepared. The plates were let to stand for 4 hours at 37 °C followed by resuspension with multichannel pippete and read at 415 and 630 nm using a SpectraMAX Plus 384 plate reader (Molecular Devices Corp., Sunnyvale, CA).
Due to the absence of enough compound, this experiment wa s performed only once, but with internal triplicate. Chloroquine (CQ) and pyrimethamine (PYR) were used as positive and negative control of inhibition, respectively.
Inhibition (%) = 100 – 100 x [(Aco ntro l – Asample) / (Acontrol - Amin)] Acontrol is the difference of the absorbance at 415 and 630 nm of the negative control (Hemin +, Tween 20 ‐, Compound ‐); Amin is the difference of the absorbance at 415 and 630 nm of the positive control (Hemin +, Tween 20 +, Compound ‐ ); Asample is the difference of the absorbance at 415 and 630 nm of the sample. The hemozoin formation inhibition assay was performed to evaluate if brussonol act inhibiting hemozoin formation in P. falciparum. CQ, which is a well‐known inhibitor of hemozoin […]
Figure S1. Hemozoin formation inhibition assay. Different concentrations of CQ (black triangles), PYR (red squares) and brussonol (blue circles) were incubated with heme in triplicates. Th e absorbance was recorded at 415/630 nm to determine the hemozoin formation inhibition. […]

SMILES: CC(C)c1cc2c(c(O)c1O)C[C@@]13CCCC(C)(C)[C@@H]1C[C@@H]2O3 [Compound 1, brussonol]
- IC50 ([1]; 3D7 strain, 72 h, SYBR Green I, read-out: IC50^Pf): 16 ± 2 µM
- IC50 ([1]; Plasmodium falciparum, 3D7, 3D7 strain, Table 2 strain panel, read-out: IC50): 13 ± 2 µM
- IC50 ([1]; Plasmodium falciparum, 3D7, 72 h, 3D7 strain, 72 h, SYBR Green I, read-out: IC50^Pf): ~20 µM
- sum of fractional inhibitory concentrations (FICindex) ([2]; brussonol combined with artesunate, proportion 1:1 respective to each IC50): ~ 1 and 1.1 ± 0.1
- combination profile with artesunate ([2]; isobologram, fixed-ratio combinations): additive effect
- hemozoin formation inhibition (in words) ([3]; listed as Brussonol): do not act inhibiting hemozoin formation
- hemozoin formation inhibition (in words) ([3]; listed as brussonol): did not interfere with hemozoin polymerization
